According to US20100267774A1, “P38 MAP KINASE INHIBITORS” (CHROMA THERAPEUTICS LTD., priority 2007, published 2010):

Experiments:
THP-1 TNFα release = test: LPS-stimulation of THP-1 cells, TNF-α release by ELISA; assay type: cell-based; conditions: Homo sapiens, THP-1, 6 h; read-out: Inhibitor activity versus THP-1 TNFα release
Description: THP-1 cells were plated in 100 μl at a density of 4×10^4 cells/well in V-bottomed 96 well tissue culture treated plates and incubated at 37° C. in 5% CO2 for 16 hrs. 2 hrs after the addition of the inhibitor in 100 μl of tissue culture media, the cells were stimulated with LPS (E coli strain 005:B5, Sigma) at a final concentration of 1 μg/ml and incubated at 37° C. in 5% CO2 for 6 hrs. TNF-α levels were measured from cell-free supernatants by sandwich ELISA (R&D Systems #QTA00B).

p38 MAP Kinase a = molecular target: T1, p38 MAP Kinase a (Homo sapiens, UniProt Q16539); test: p38 MAP Kinase activity, radiometric filter-binding assay (Upstate); assay type: biochemical; conditions: IC50 range; read-out: Inhibitor activity versus p38 MAPKa
T1 construct: purchased Upstate (Dundee UK)
T1 sequence (Q16539 whole entry): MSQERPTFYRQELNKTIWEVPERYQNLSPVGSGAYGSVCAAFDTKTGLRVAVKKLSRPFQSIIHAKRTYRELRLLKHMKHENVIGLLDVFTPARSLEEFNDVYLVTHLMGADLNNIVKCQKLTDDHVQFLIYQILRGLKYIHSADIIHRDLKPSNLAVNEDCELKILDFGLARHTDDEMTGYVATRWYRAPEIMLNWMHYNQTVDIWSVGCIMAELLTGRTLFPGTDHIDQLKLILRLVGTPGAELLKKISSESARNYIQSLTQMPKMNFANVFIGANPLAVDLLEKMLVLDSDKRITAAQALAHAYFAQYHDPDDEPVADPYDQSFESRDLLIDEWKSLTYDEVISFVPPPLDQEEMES
Description: The ability of compounds to inhibit p38 MAP a Kinase activity was measured in an assay performed by Upstate (Dundee UK). In a final reaction volume of 25 μL, p38 MAP Kinase a (5-10 mU) is incubated with 25 mM Tris pH 7.5, 0.002 mMEGTA, 0.33 mg/mL myelin basic protein, 10 mM MgAcetate and [g-33P-ATP] (specific activity approx. 500 cpm/pmol, concentration as required). The reaction is initiated by the addition of the MgATP mix. After incubation for 40 minutes at room temperature, the reaction is stopped by the addition of 5 μL of a 3% phosphoric acid solution. 10 μL of the reaction is then spotted onto a P30 filtermat and washed three times for 5 minutes in 75 mM phosphoric acid and once in methanol prior to drying and scintillation counting.
Duplicate data points are generated from a 1/3 log dilution series of a stock solution in DMSO. Nine dilutions steps are made from a top concentration of 10 μM, and a ‘no compound’ blank is included. The standard radiometric filter-binding assay is performed at an ATP concentration at, or close to, the Km. Data from scintillation counts are collected and subjected to free-fit analysis by Prism software. From the curve generated, the concentration giving 50% inhibition is determined and reported.

Row | Compound | IC50 (THP-1 TNFα release) | IC50 (p38 MAP Kinase a)
1 | CC(C)C[C@H](NCCc1ccc(-n2c(N)c(C(=O)c3ccc(F)cc3F)ccc2=O)cc1)C(=O)O[C@@H]1CC(C)CC[C@H]1C(C)C (stereo in doubt) [Example 13, (1R,2S,5S)-2-Isopropyl-5-methylcyclohexyl N-(2-{4-[6-amino-5-(2,4-difluorobenzoyl)-2-oxopyridin-1(2H)-yl]phenyl}ethyl)-L-leucinate] | < 0.1 µM | > 1 µM
2 | Nc1c(C(=O)c2ccc(F)cc2F)ccc(=O)n1-c1ccc(CCN[C@H](C(=O)OC2CCCC2)c2ccccc2)cc1 [Example 1] | < 0.1 µM | 0.1 to 1 µM
3 | CC(C)[C@H](NCCc1ccc(-n2c(N)c(C(=O)c3ccc(F)cc3F)ccc2=O)cc1)C(=O)OC1CCCC1 [Example 5, Cyclopentyl N-[2-(4-{6-amino-5-[(2,4-difluorophenyl)carbonyl]-2-oxopyridin-1(2H)-yl}phenyl)ethyl]-L-valinate] | < 0.1 µM | 0.1 to 1 µM
4 | CC(C)[C@H](NCCc1ccc(-n2c(N)c(C(=O)c3ccc(F)cc3F)ccc2=O)cc1)C(=O)OC(C)(C)C [Example 6, tert-butyl N-[2-(4-{6-amino-5-[(2,4-difluorophenyl)carbonyl]-2-oxopyridin-1(2H)-yl}phenyl)ethyl]-L-valinate] | 0.1 to 1 µM | 0.1 to 1 µM
5 | CC(C)(C)[C@H](NCCc1ccc(-n2c(N)c(C(=O)c3ccc(F)cc3F)ccc2=O)cc1)C(=O)OC1CCCC1 [Example 7, Cyclopentyl N-[2-(4-{6-amino-5-[(2,4-difluorophenyl)carbonyl]-2-oxopyridin-1(2H)-yl}phenyl)ethyl]-3-methyl-L-valinate] | > 1 µM | 0.1 to 1 µM
6 | CC(C)(C)OC(=O)[C@@H](NCCc1ccc(-n2c(N)c(C(=O)c3ccc(F)cc3F)ccc2=O)cc1)C(C)(C)C [Example 8, tert-butyl N-[2-(4-{6-amino-5-[(2,4-difluorophenyl)carbonyl]-2-oxopyridin-1(2H)-yl}phenyl)ethyl]-3-methyl-L-valinate] | > 1 µM | 0.1 to 1 µM
7 | CC(C)C[C@@H](NCCc1ccc(-n2c(N)c(C(=O)c3ccc(F)cc3F)ccc2=O)cc1)C(=O)OC1CCCC1 [Example 9, Cyclopentyl N-[2-(4-{6-amino-5-[(2,4-difluorophenyl)carbonyl]-2-oxopyridin-1(2H)-yl}phenyl)ethyl]-D-leucinate] | 0.1 to 1 µM | 0.1 to 1 µM
8 | CC(C)(C)OC[C@H](NCCc1ccc(-n2c(N)c(C(=O)c3ccc(F)cc3F)ccc2=O)cc1)C(=O)OC1CCCC1 [Example 11, Cyclopentyl N-[2-(4-{6-amino-5-[(2,4-difluorophenyl)carbonyl]-2-oxopyridin-1(2H)-yl}phenyl)ethyl]-O-tert-butyl-L-serinate] | < 0.1 µM | 0.1 to 1 µM
9 | CC(C)(C)OC[C@H](NCCc1ccc(-n2c(N)c(C(=O)c3ccc(F)cc3F)ccc2=O)cc1)C(=O)OC(C)(C)C [Example 12, tert-butyl N-[2-(4-{6-amino-5-[(2,4-difluorophenyl)carbonyl]-2-oxopyridin-1(2H)-yl}phenyl)ethyl]-O-tert-butyl-L-serinate] | > 1 µM | 0.1 to 1 µM
10 | C[C@@H](OC(C)(C)C)[C@H](NCCc1ccc(-n2c(N)c(C(=O)c3ccc(F)cc3F)ccc2=O)cc1)C(=O)OC1CCCC1 [Example 15, Cyclopentyl N-[2-(4-{6-amino-5-[(2,4-difluorophenyl)carbonyl]-2-oxopyridin-1(2H)-yl}phenyl)ethyl]-O-tert-butyl-L-threoninate] | > 1 µM | 0.1 to 1 µM
11 | C[C@@H](O)[C@H](NCCc1ccc(-n2c(N)c(C(=O)c3ccc(F)cc3F)ccc2=O)cc1)C(=O)OC1CCCC1 [Example 17, Cyclopentyl N-[2-(4-{6-amino-5-[(2,4-difluorophenyl)carbonyl]-2-oxopyridin-1(2H)-yl}phenyl)ethyl]-L-threoninate] | < 0.1 µM | < 0.1 µM
12 | CC[C@H](C)[C@H](NCCc1ccc(-n2c(N)c(C(=O)c3ccc(F)cc3F)ccc2=O)cc1)C(=O)OC1CCCC1 [Example 18, Cyclopentyl N-[2-(4-{6-amino-5-[(2,4-difluorophenyl)carbonyl]-2-oxopyridin-1(2H)-yl}phenyl)ethyl]-L-isoleucinate] | < 0.1 µM | 0.1 to 1 µM
13 | C[C@H](NCCc1ccc(-n2c(N)c(C(=O)c3ccc(F)cc3F)ccc2=O)cc1)C(=O)OC1CCCC1 [Example 20, Cyclopentyl N-[2-(4-{6-amino-5-[(2,4-difluorophenyl)carbonyl]-2-oxopyridin-1(2H)-yl}phenyl)ethyl]-L-alaninate] | < 0.1 µM | < 0.1 µM
14 | Nc1c(C(=O)c2ccc(F)cc2F)ccc(=O)n1-c1ccc(CCN[C@@H](Cc2ccccc2)C(=O)OC2CCCC2)cc1 [Example 22, Cyclopentyl N-[2-(4-{6-amino-5-[(2,4-difluorophenyl)carbonyl]-2-oxopyridin-1(2H)-yl}phenyl)ethyl]-L-phenylalaninate] | < 0.1 µM | 0.1 to 1 µM
15 | CC(C)C[C@H](NCCc1cc(F)c(-n2c(N)c(C(=O)c3ccc(F)cc3)ccc2=O)c(F)c1)C(=O)OC1CCCC1 [Example 24, Cyclopentyl N-(2-{4-[6-amino-5-(4-fluorobenzoyl)-2-oxopyridin-1(2H)-yl]-3,5-difluorophenyl}ethyl)-L-leucinate] | < 0.1 µM | < 0.1 µM
16 | CC(C)C[C@H](NCCc1cc(F)c(-n2c(N)c(C(=O)c3ccc(F)cc3)ccc2=O)c(F)c1)C(=O)OC(C)(C)C [Example 25, tert-butyl N-(2-{4-[6-amino-5-(4-fluorobenzoyl)-2-oxopyridin-1(2H)-yl]-3,5-difluorophenyl}ethyl)-L-leucinate] | < 0.1 µM | 0.1 to 1 µM
17 | Nc1c(C(=O)c2ccc(F)cc2)ccc(=O)n1-c1c(F)cc(CCN[C@H](C(=O)OC2CCCC2)c2ccccc2)cc1F [Example 26, Cyclopentyl (2S)-[(2-{-4-[6-amino-5-(4-fluorobenzoyl)-2-oxopyridin-1(2H)-yl]-3,5-difluorophenyl}ethyl)amino](phenyl)acetate] | < 0.1 µM | 0.1 to 1 µM
18 | CC(C)(C)OC(=O)[C@@H](NCCc1cc(F)c(-n2c(N)c(C(=O)c3ccc(F)cc3F)ccc2=O)c(F)c1)c1ccccc1 [Example 35, tert-butyl (2S)-[(2-{4-[6-amino-5-(2,4-difluorobenzoyl)-2-oxopyridin-1(2H)-yl]-3,5-difluorophenyl}ethyl)amino](phenyl)acetate] | < 0.1 µM | –
19 | Nc1c(C(=O)c2ccc(F)cc2F)ccc(=O)n1-c1c(F)cc(CCN[C@H](C(=O)OC2CCCC2)c2ccc(F)cc2)cc1F [Example 47, Cyclopentyl (2S)-{[2-(4-{6-amino-5-[(2,4-difluorophenyl)carbonyl]-2-oxopyridin-1(2H)-yl}-3,5-difluorophenyl)ethyl]amino}(4-fluorophenyl)ethanoate] | < 0.1 µM | –
20 | CC(C)(C)OC(=O)[C@@H](NCCc1cc(F)c(-n2c(N)c(C(=O)c3ccc(F)cc3F)ccc2=O)c(F)c1)c1ccc(F)cc1 [Example 48, tert-butyl (2S)-{[2-(4-{6-amino-5-[(2,4-difluorophenyl)carbonyl]-2-oxopyridin-1(2H)-yl}-3,5-difluorophenyl)ethyl]amino}(4-fluorophenyl)ethanoate] | < 0.1 µM | –
21 | CC(C)C[C@H](NCCc1ccc(-n2c(N)c(C(=O)c3ccc(F)cc3F)ccc2=O)s1)C(=O)O [Example 71, N-(2-{5-[6-amino-5-(2,4-difluorobenzoyl)-2-oxopyridin-1(2H)-yl]-2-thienyl}ethyl)-L-leucine] | – | 0.1 to 1 µM
